Data published in ChEMBL document CHEMBL5241112, “Insights into the recent progress in the medicinal chemistry of pyranopyrimidine analogs” (RSC Med Chem, 2022).
Converted amounts (≈) assume the structure as drawn. Each block holds one molecule with its values, some of them ahead of it.

How the values were obtained:
[1] = tested on: Escherichia coli; experiment: Antibacterial activity against Escherichia coli MTCC 723 assessed as diameter of inhibition zone at 0.1 mg/ml incubated for 24 hrs by agar well diffusion method; assay type: functional; details: read-out: DIZ
[2] = Inhibition of porcine pancreatic alpha-amylase preincubated for 10 mins followed by substrate starch addition and measured after 10 mins by colorimetric analysis; set-up: species or system Sus scrofa
[3] = target: Albumin (Bos taurus, UniProt P02769); experiment: […] bovine serum albumin denaturation incubated for 23 mins by UV-Visible spectrophotometry
Sequence of Albumin (P02769 whole entry): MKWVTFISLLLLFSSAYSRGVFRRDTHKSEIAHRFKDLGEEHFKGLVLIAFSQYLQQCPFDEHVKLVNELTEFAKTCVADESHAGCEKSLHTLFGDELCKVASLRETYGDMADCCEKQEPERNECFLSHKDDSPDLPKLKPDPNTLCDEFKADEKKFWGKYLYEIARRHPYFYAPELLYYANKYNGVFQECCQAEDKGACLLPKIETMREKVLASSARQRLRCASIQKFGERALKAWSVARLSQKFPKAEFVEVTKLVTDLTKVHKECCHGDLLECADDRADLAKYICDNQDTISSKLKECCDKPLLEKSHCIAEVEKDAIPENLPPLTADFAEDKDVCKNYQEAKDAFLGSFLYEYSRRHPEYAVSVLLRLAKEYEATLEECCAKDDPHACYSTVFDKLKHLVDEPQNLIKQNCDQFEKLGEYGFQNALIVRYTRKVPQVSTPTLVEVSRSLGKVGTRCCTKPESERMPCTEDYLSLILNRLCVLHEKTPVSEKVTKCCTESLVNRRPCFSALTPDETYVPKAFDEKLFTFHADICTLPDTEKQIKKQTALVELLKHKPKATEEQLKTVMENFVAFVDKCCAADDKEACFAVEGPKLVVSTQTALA

[4] = target: Alpha-glucosidase (Saccharomyces cerevisiae S288c, UniProt P53341+P38158+P07265); experiment: Inhibition of Saccharomyces cerevisiae alpha-glucosidase preincubated for 5 mins followed by PNP-GLUC substrate addition and measured after 20 mins by spectroscopic analysis; assay type: protein assay
[5] = tested on: Pseudomonas aeruginosa; experiment: Antibacterial activity against Pseudomonas aeruginosa MTCC 741 assessed as diameter of inhibition zone at 0.1 mg/ml incubated for 24 hrs by agar well diffusion method; assay type: functional; details: read-out: DIZ
[6] = tested on: Staphylococcus aureus; experiment: Antibacterial activity against Staphylococcus aureus MTCC 87 assessed as diameter of inhibition zone at 0.1 mg/ml incubated for 24 hrs by agar well diffusion method; assay type: functional; details: read-out: DIZ
[7] = tested on: Bacillus subtilis; experiment: Antibacterial activity against Bacillus subtilis assessed as diameter of inhibition zone at 100 ug/ml by disc diffusion method; assay type: functional; details: read-out: DIZ
[8] = tested on: Escherichia coli; experiment: Antibacterial activity against Escherichia coli assessed as diameter of inhibition zone at 100 ug/ml by disc diffusion method; assay type: functional; details: read-out: DIZ
[9] = tested on: Candida albicans; experiment: Antifungal activity against Candida albicans assessed as diameter of inhibition zone at 100 ug/ml by agar disc diffusion method; assay type: functional; details: read-out: DIZ
[10] = tested on: Klebsiella pneumoniae; experiment: Antibacterial activity against Klebsiella pneumoniae assessed as diameter of inhibition zone at 100 ug/ml by disc diffusion method; assay type: functional; details: read-out: DIZ
[11] = tested on: Staphylococcus aureus; experiment: Antibacterial activity against Staphylococcus aureus assessed as diameter of inhibition zone at 100 ug/ml by disc diffusion method; assay type: functional; details: read-out: DIZ
[12] = tested on: Aspergillus flavus; experiment: Antifungal activity against Aspergillus flavus assessed as diameter of inhibition zone at 100 ug/ml by agar disc diffusion method; assay type: functional; details: read-out: DIZ
[13] = tested on: Escherichia coli; experiment: Antimicrobial activity against Escherichia coli ATCC 25922 assessed as diameter of inhibition zone at 20 mg/ml incubated for 24 hrs by disk diffusion method; assay type: functional; details: read-out: DIZ
[14] = tested on: Pseudomonas aeruginosa; experiment: Antimicrobial activity against Pseudomonas aeruginosa ATCC 27853 assessed as diameter of inhibition zone at 20 mg/ml incubated for 24 hrs by disk diffusion method; assay type: functional; details: read-out: DIZ
[15] = tested on: Klebsiella pneumoniae; experiment: Antimicrobial activity against Klebsiella pneumoniae ATCC 15380 assessed as diameter of inhibition zone at 20 mg/ml incubated for 24 hrs by disk diffusion method; assay type: functional; details: read-out: DIZ
[16] = tested on: Klebsiella pneumoniae; experiment: Antibacterial activity against Klebsiella pneumoniae MTCC 109 assessed as diameter of inhibition zone at 0.1 mg/ml incubated for 24 hrs by agar well diffusion method; assay type: functional; details: read-out: DIZ
[17] = tested on: Candida albicans; experiment: Antifungal activity against Candida albicans MTCC 3008 assessed as fungal growth inhibition by broth microdilution method; assay type: functional
[18] = tested on: Klebsiella pneumoniae; experiment: Antimicrobial activity against Klebsiella pneumoniae UC57 assessed as diameter of inhibition zone at 20 mg/ml incubated for 24 hrs by disk diffusion method; assay type: functional; details: read-out: DIZ
[19] = target: Urease (Canavalia ensiformis, UniProt P07374); experiment: Inhibition of jack bean urease by phenol red method
Sequence of Urease (P07374 whole entry, the tested form may be a part): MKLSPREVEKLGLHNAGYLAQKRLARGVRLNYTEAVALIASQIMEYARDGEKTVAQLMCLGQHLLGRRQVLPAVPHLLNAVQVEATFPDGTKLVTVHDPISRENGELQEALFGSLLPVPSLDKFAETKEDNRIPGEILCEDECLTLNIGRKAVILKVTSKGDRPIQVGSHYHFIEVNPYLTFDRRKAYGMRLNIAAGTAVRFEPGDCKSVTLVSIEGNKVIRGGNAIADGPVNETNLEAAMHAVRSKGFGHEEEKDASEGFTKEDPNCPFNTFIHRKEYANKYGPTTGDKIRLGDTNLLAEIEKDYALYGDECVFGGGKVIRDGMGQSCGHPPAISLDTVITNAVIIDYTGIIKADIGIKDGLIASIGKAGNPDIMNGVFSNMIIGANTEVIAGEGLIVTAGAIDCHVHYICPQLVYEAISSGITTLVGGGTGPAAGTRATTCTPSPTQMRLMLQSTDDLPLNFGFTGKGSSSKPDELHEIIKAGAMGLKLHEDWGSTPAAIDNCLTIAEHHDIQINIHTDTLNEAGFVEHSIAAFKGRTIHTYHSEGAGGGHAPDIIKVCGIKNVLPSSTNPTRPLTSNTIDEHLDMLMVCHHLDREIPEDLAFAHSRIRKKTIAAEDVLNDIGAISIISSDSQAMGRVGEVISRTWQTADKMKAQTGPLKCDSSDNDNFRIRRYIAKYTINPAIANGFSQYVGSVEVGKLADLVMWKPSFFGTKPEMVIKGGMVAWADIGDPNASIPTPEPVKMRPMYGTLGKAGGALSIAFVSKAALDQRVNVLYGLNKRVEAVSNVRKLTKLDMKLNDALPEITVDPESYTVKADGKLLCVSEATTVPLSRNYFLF

[20] = tested on: Bacillus cereus; experiment: Antimicrobial activity against Bacillus cereus ATCC14579 assessed as diameter of inhibition zone at 20 mg/ml incubated for 24 hrs by disk diffusion method; assay type: functional; details: read-out: DIZ
[21] = tested on: Pseudomonas aeruginosa; experiment: Antibacterial activity against Pseudomonas aeruginosa assessed as inhibition of bacterial growth; assay type: functional
[22] = tested on: HepG2; experiment: Anticancer activity against human HepG2 cells assessed as reduction in cell viability; assay type: functional, cell-based
[23] = tested on: Bacillus subtilis; experiment: Antibacterial activity against Bacillus subtilis assessed as diameter of inhibition zone; assay type: functional
[24] = tested on: Salmonella typhimurium; experiment: Antibacterial activity against Salmonella typhimurium assessed as diameter of inhibition zone; assay type: functional, Salmonella enterica subsp. enterica serovar Typhimurium
[25] = tested on: Escherichia coli; experiment: Antibacterial activity against Escherichia coli assessed as inhibition of bacterial growth; assay type: functional
[26] = tested on: Staphylococcus aureus; experiment: Antibacterial activity against Staphylococcus aureus assessed as diameter of inhibition zone; assay type: functional
[27] = tested on: Aspergillus niger; experiment: Antifungal activity against Aspergillus niger assessed as inhibition of fungal growth; assay type: functional
[28] = tested on: Escherichia coli; experiment: Antibacterial activity against Escherichia coli assessed as diameter of inhibition zone; assay type: functional
[29] = tested on: HCT-116; experiment: cells; details: Homo sapiens
[30] = tested on: MCF7; experiment: Anticancer activity against human MCF7 cells assessed as reduction in cell viability; assay type: functional, cell-based
[31] = tested on: Escherichia coli; experiment: Antimicrobial activity against Escherichia coli ATCC 14169 assessed as diameter of inhibition zone at 20 mg/ml incubated for 24 hrs by disk diffusion method; assay type: functional; details: read-out: DIZ
[32] = tested on: Aspergillus flavus; experiment: Antifungal activity against Aspergillus flavus assessed as inhibition of fungal growth; assay type: functional
[33] = tested on: Candida albicans; experiment: Antifungal activity against Candida albicans assessed as inhibition of fungal growth; assay type: functional
[34] = tested on: Staphylococcus aureus; experiment: Antimicrobial activity against Staphylococcus aureus NCTC7447 assessed as diameter of inhibition zone at 20 mg/ml incubated for 24 hrs by disk diffusion method; assay type: functional; details: read-out: DIZ
[35] = tested on: Salmonella typhimurium; experiment: Antimicrobial activity against Salmonella typhimurium ATCC 19430 assessed as diameter of inhibition zone at 20 mg/ml incubated for 24 hrs by disk diffusion method; assay type: functional, Salmonella enterica subsp. enterica serovar Typhimurium; details: Salmonella enterica, read-out: DIZ
[36] = tested on: Escherichia coli; experiment: Antibacterial activity against Escherichia coli NCIM 2066 assessed as diameter of inhibition zone incubated for 24 hrs by agar well diffusion method; assay type: functional
[37] = tested on: Staphylococcus aureus; experiment: Antibacterial activity against Staphylococcus aureus NCIM 2654 assessed as diameter of inhibition zone incubated for 24 hrs by agar well diffusion method; assay type: functional
[38] = Antioxidant activity assessed as DPPH radical scavenging activity at 12 ug incubated for 30 mins by spectrophotometric analysis; assay type: functional; details: dose 12.0 µg
[39] = tested on: Candida albicans; experiment: Antifungal activity against Candida albicans assessed as diameter of inhibition zone incubated for 48 hrs by agar well diffusion method; assay type: functional
[40] = tested on: Staphylococcus aureus; experiment: Antibacterial activity against Staphylococcus aureus ATCC6538-P assessed as diameter of inhibition zone at 50 mg/ml incubated for 24 hrs by paper disk diffusion method; assay type: functional; details: read-out: DIZ
[41] = tested on: Aspergillus fumigatus; experiment: microbe, parasite or virus in culture; assay type: functional; details: ATCC204305, dose 50 mg/ml, time 24 hrs, read-out: DIZ
[42] = tested on: Escherichia coli; experiment: Antibacterial activity against Escherichia coli ATCC 25922 assessed as diameter of inhibition zone at 50 mg/ml incubated for 24 hrs by paper disk diffusion method; assay type: functional; details: read-out: DIZ

- IC50 [2]: 9.9 µM
- IC50 [3]: 26.7 µM
- IC50 [4]: 4021 µM
Structure (SMILES): O=C(C1=C(c2ccccc2O)Oc2[nH]c(=S)[nH]c(=O)c2C1c1ccc(Cl)cc1)N1CCCCC1 (stereo not given)
- zone of inhibition at 100 µg/mL [1]: 14.1 mm
- zone of inhibition at 100 µg/mL [5]: 13.1 mm

- IC50 [2]: 24.7 µM
- IC50 [3]: 23.1 µM
- IC50 [4]: 6855 µM
Structure (SMILES): O=C(C1=C(c2ccccc2O)Oc2[nH]c(=S)[nH]c(=O)c2C1c1ccc(Br)cc1)N1CCCCC1 (stereo not given)
- zone of inhibition at 100 µg/mL [6]: 9.1 mm

Structure (SMILES): CCOC(=O)C1=C(C)Oc2nc(C)n(Cc3cn(-c4ccc(Cl)cc4)nn3)c(=O)c2C1c1ccc([N+](=O)[O-])cc1 (stereo not given)
- zone of inhibition at 100 µg/mL [7]: 13 mm
- zone of inhibition at 100 µg/mL [8]: 17 mm
- zone of inhibition at 100 µg/mL [9]: 17.5 mm
- zone of inhibition at 100 µg/mL [10]: 16.5 mm
- zone of inhibition at 100 µg/mL [11]: 15 mm
- zone of inhibition at 100 µg/mL [12]: 17.5 mm

Structure (SMILES): Cc1ccc(C2C(C#N)=C(N)Oc3[nH]c(=O)[nH]c(=O)c32)s1 (stereo not given)
- zone of inhibition at 20000 µg/mL [13]: 14 mm
- zone of inhibition at 20000 µg/mL [14]: 18 mm
- zone of inhibition at 20000 µg/mL [15]: 16 mm

- IC50 [2]: 20.1 µM
- IC50 [3]: 26 µM
- IC50 [4]: 6197 µM
Structure (SMILES): O=C(C1=C(c2ccccc2O)Oc2[nH]c(=S)[nH]c(=O)c2C1c1ccccc1O)N1CCCCC1 (stereo not given)
- zone of inhibition at 100 µg/mL [1]: 12.2 mm
- zone of inhibition at 100 µg/mL [16]: 11.6 mm
- zone of inhibition at 100 µg/mL [5]: 10.1 mm

- MIC [17]: 500 µg/mL (≈ 1420 µM)
Structure (SMILES): COC1=CC(=O)C[C@@H](C)[C@]12Oc1c(Cl)c(OC)cc(OC)c1C2=O [GRISEOFULVIN]

- IC50 [2]: 42.8 µM
- IC50 [3]: 12.3 µM
- IC50 [4]: 4101 µM
Structure (SMILES): O=C(C1=C(c2ccccc2O)Oc2[nH]c(=S)[nH]c(=O)c2C1c1ccc(F)cc1)N1CCCCC1 (stereo not given)
- zone of inhibition at 100 µg/mL [16]: 9.2 mm
- zone of inhibition at 100 µg/mL [6]: 10.5 mm

Structure (SMILES): COc1ccc(C2C(C#N)=C(N)Oc3[nH]c(=O)[nH]c(=O)c32)cc1 (stereo not given)
- zone of inhibition at 20000 µg/mL [18]: 14 mm
- IC50 [19]: 62.9 µM
- zone of inhibition at 20000 µg/mL [20]: 11 mm
- MIC [21]: 25 µg/mL (≈ 80.1 µM)
- zone of inhibition at 20000 µg/mL [14]: 5 mm
- IC50 [22]: 2.09 µM
- diameter of the inhibition zone (DIZ) [23]: 12 mm
- diameter of the inhibition zone (DIZ) [24]: 8 mm
- MIC [25]: 25 µg/mL (≈ 80.1 µM)
- diameter of the inhibition zone (DIZ) [26]: 10 mm
- MIC [27]: 162 µg/mL (≈ 520 µM)
- diameter of the inhibition zone (DIZ) [28]: 10 mm
- IC50 [29]: 2.61 µM
- IC50 [30]: 2.43 µM
- zone of inhibition at 20000 µg/mL [31]: 8 mm
- MIC [32]: 150 µg/mL (≈ 480 µM)
- MIC [33]: 125 µg/mL (≈ 400 µM)
- zone of inhibition at 20000 µg/mL [34]: 14 mm

Structure (SMILES): N#CC1=C(N)Oc2[nH]c(=O)[nH]c(=O)c2C1c1ccc[nH]1 (stereo not given)
- zone of inhibition at 20000 µg/mL [15]: 16 mm
- zone of inhibition at 20000 µg/mL [35]: 20 mm

Structure (SMILES): Cc1ccc(C2c3c(C)n[nH]c3Oc3[nH]c(=O)[nH]c(=O)c32)cc1 (stereo not given)
- diameter of the inhibition zone (DIZ) [36]: 23 mm
- diameter of the inhibition zone (DIZ) [37]: 25 mm
- Activity [38]: 71.9%
- diameter of the inhibition zone (DIZ) [39]: 27 mm

Structure (SMILES): COc1ccc(C2c3c(C)n[nH]c3Oc3[nH]c(=O)[nH]c(=O)c32)cc1 (stereo not given)
- diameter of the inhibition zone (DIZ) [36]: 19 mm
- diameter of the inhibition zone (DIZ) [37]: 27 mm
- diameter of the inhibition zone (DIZ) [39]: 27 mm

Structure (SMILES): O=c1[nH]cnc2c1C(c1ccc(Cl)cc1)C=C(c1cc3ccccc3oc1=O)O2 (stereo not given)
- zone of inhibition at 50000 µg/mL [40]: 10 mm
- zone of inhibition at 50000 µg/mL [41]: 10 mm
- zone of inhibition at 50000 µg/mL [42]: 10 mm
